Molecular target: T1, SHP2 PTP domain (Homo sapiens, UniProt Q06124)
T1 construct: Human SHP2 PTP domain (A237–I529) expression constructs; His-tag; made in house; host or cells: E. coli BL21 (DE3)
T1 sequence (Q06124 237-529): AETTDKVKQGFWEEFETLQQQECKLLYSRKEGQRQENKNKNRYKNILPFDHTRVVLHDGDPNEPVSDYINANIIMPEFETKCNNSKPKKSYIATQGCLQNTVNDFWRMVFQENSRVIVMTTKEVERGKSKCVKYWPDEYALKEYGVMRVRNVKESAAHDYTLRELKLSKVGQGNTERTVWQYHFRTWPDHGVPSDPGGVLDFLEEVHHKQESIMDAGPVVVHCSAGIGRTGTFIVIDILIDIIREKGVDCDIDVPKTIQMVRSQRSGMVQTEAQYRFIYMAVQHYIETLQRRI
Assay: SHP2 inhibition assay (DiFMUP) with SHP2-PTP; HTS and dose-response
Type: biochemical
Conditions: 0.5 nM SHP2-PTP, DiFMUP substrate, 30 min co-incubation at 20°C; read-out: IC50 against the SHP2 PTP domain
Procedure: Human SHP2 PTP domain (A237–I529) expression constructs were engineered by cloning PTPN11 (NP_002825.3) into the pET30 plasmid with a His-tag to support further protein purification. The K366A/Q510A double mutation was introduced into the wild-type template using a site-directed mutagenesis kit (E0554S; New England Biolabs). The expression constructs were sequenced and transformed into BL21 (DE3)-competent cells. E. coli cells were grown at 37°C in an LB culture medium in the presence of […] kanamycin until the OD600 reached 1.0. The medium was then cooled to 18°C and 1 mM isopropyl ß-D-1-thiogalactopyranoside (IPTG) was added to induce protein expression overnight.
A surrogate phosphatase substrate, 6,8-difluoro-4-methylumbelliferyl phosphate (DiFMUP, Thermo Fisher, #D22065), was used to monitor the catalytic activity of SHP2 in a prompt fluorescence assay format. Specifically, the DiFMUP phosphatase assay was performed at 20°C in a 384-well Griener CELLSTAR black polystyrene plate in the buffer condition of 60 mM HEPES (pH7.5), 75 mM NaCl, 75 mM KCl, 1 mM EDTA, 0.05% Tween-20, 5 mM dithiothreitol (DTT). The final reaction volume was 25 μL. NP compound libraries were obtained from TargetMol at a stock concentration of 10 mM, dissolved in DMSO. The purity of the active compound LIN used in this study is 96.27% as tested by HPLC analysis. The HPLC traces is shown in Supporting Information. We co-incubated 0.5 nM of SHP2-PTP enzyme with tested NPs for 30 min at 20°C, followed by the addition of DiFMUP into the reaction. After 30 min, 5 μL of bpV(phen) solution was added to quench the dephosphorylation reaction. The signals were read on a plate reader (SpectraMax iD5, Molecular Devices). The excitation and emission wavelengths were 340 and 450 nm, respectively. The inhibitor dose-response curves were evaluated using a normalised IC50 regression curve fitting with control-based normalisation. For the full-length SHP2 inhibition assay, 0.5 μM of a bisphosphorylated pIRS-1 peptide (ChinaPeptides Ltd. Shanghai) was added for partial SHP2 activation. […]

IC50: 12.6 ± 4.2 µM
Compound: C=C1C2CC2[C@@]2(C)Cc3occ(C)c3C(O)C12 (stereo partly shown) [Lindenenol, lindenenol]
